Values joined by “and” are separate entries in the source; they are usually repeats but may differ in a detail not shown here. Identical values can stand only once.
System: LG0567-F671-PDC multi-cell spheroid viability
Assay: Anticancer human tumor LG0567-F671-PDC patient-derived lung adenocarcinoma cell line growth inhibition [IpAb]
Conditions: for viability, T/C: stronger effect = lower value
Text: Combinatorial screen of targeted agents with ipatasertib and abemaciclib in multi-cell type tumor spheroids
A high-throughput screen of multi-cell type tumor spheroids was designed to identify active combinations of targeted small molecules and ipatasertib or abemaciclib. Complex spheroids include a stromal component modeled by human endothelial cells (HUVEC) and fibroblasts modeled by human mesenchymal stem cells (MSCs). The concentration ranges selected for each drug and investigational agent were based upon clinically achievable concentrations if the clinical Cmax of the agent was known.
Compounds. The drugs and investigational agents: ipatasertib (NSC767898), abemaciclib(NSC768073), selumetinib (NSC741078), trametinib (758246), adavosertib (NSC754352), everolimus (NSC733504), sapanisertib (NSC764658), vemurafenib (NSC761431), venetoclax (NSC766270), copanlisib (NSC809693), apelisib (NSC765974), palbociblib (NSC758247), vemurafenib (NSC761431), dabrafenib (NSC764134), ravoxertinib (NSC781343), BMS-387032 (NSC767048), sotorasib (NSC818433), talazoparib (NSC767125) and afursertib (NSC778305), were obtained from the National Cancer Institute (NCI) Developmental Therapeutics Program Chemical Repository. The FDA-approved anticancer drug set is available from the NCI Developmental Therapeutics Program. […] The stock solutions were prepared in dimethyl sulfoxide (DMSO, Sigma-Aldrich, St. Louis, MO, cat. D2650) at 800-fold the tested concentration and stored at -70 degrees C prior to their use. All drugs and investigational agents were tested over a range starting from a high concentration at or near the clinical Cmax and decreasing in half-log increments. If the clinical Cmax for an agent had not been determined, the highest concentration tested was 10 microM.
NCI60 Cell Culture. NCI60 cell lines were obtained from the NCI Developmental Therapeutics Program Tumor Repository. For each lot of cells, the Repository performed Applied Biosystems AmpFLSTR Identifiler testing with PCR amplification to confirm consistency with the published Identifier STR profile for each cell line. Cells were kept in continuous culture for no more than 20 passages. The optimal seeding densities for each of the cell lines at each time point assessed were determined prior to performing the concentration response studies. Briefly, the NCI60 human tumor lines were grown as monolayers in RPMI 1640 medium supplemented with 10% FBS and 2 mmol/L L-glutamine.
An additional 9 lines were from the NCI60 cell line panel including MDA-MB-231 breast carcinoma, MDA-MB-468 breast carcinoma, MCF7 breast carcinoma, Hs578T breast carcinoma, MALME-3M melanoma, SK-MEL-2 melanoma, SK-OV-3 ovarian carcinoma, DU-145 prostate carcinoma, PC-3 prostate carcinoma, all cell lines along with major genetic alterations are listed on Table 2. Pooled donor human umbilical vein endothelial cells (HUVEC, Lonza, cat. CC-2519) and human mesenchymal stem cells (hMSC, Lonza, cat. PT-2501) were purchased from Lonza (Walkersville, MD).
PDMR cell lines were grown in complete medium (DC medium): Dulbecco's modified Eagle's medium (DMEM)/F12 supplemented with 5% fetal bovine serum (FBS), 2 mM L-glutamine, 100 U/mL penicillin and 100 µg/ml streptomycin, 0.4 µg/ml hydrocortisone, 10 ng/ml epidermal growth factor (EGF) recombinant human protein, 24 µg/mL adenine, and 0.1 mg/mL primocin. During culture from frozen stock vials, PDMR cells were cultured in the same medium containing 10 µM Y-27632 (see Table 3). The PDCs were cultured in complete DMEM/F12 media without 10 microM Y-27632 dihydrochloride for at least two passages prior to the screen. The pooled donor HUVEC and hMSC were cultured in endothelial cell growth medium 2 (PromoCell, Heidelberg, Germany, cat. C-22011) and mesenchymal stem cell growth medium 2 (PromoCell, cat. C-28009), respectively. For all experiments, HUVEC and hMSC were used at passages </=5.
[…]

[1] = curve of first compound, second compound 0.1 µM
[2] = curve of first compound, second compound 0.316 µM
[3] = curve of first compound, second compound 1 µM
[4] = curve of first compound, second compound 3.16 µM
[5] = curve of first compound, second compound 10 µM
[6] = second compound 0.1 µM, first compound 0.0316 µM
[7] = second compound 0.1 µM, first compound 0.1 µM
[8] = second compound 0.1 µM, first compound 0.316 µM
[9] = second compound 0.1 µM, first compound 1 µM
[10] = second compound 0.1 µM, first compound 3.16 µM
[11] = second compound 0.1 µM, first compound 10 µM
[12] = second compound 0.316 µM, first compound 0.0316 µM
[13] = second compound 0.316 µM, first compound 0.1 µM
[14] = second compound 0.316 µM, first compound 0.316 µM
[15] = second compound 0.316 µM, first compound 1 µM
[16] = second compound 0.316 µM, first compound 3.16 µM
[17] = second compound 0.316 µM, first compound 10 µM
[18] = second compound 1 µM, first compound 0.0316 µM
[19] = second compound 1 µM, first compound 0.1 µM
[20] = second compound 1 µM, first compound 0.316 µM
[21] = second compound 1 µM, first compound 1 µM
[22] = second compound 1 µM, first compound 3.16 µM
[23] = second compound 1 µM, first compound 10 µM
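Also: viability read after 7 days of drug exposure.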
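For viability, T/C in this document: 100% = DMSO vehicle control luminescence.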

Structure (SMILES): CC(=O)c1c(C)c2cnc(Nc3ccc(N4CCNCC4)cn3)nc2n(C2CCCC2)c1=O + CC(C)NCC(C(=O)N1CCN(c2ncnc3c2C(C)CC3O)CC1)c1ccc(Cl)cc1
- IC50 [1]: > 300 nM
- IC50 [2]: > 300 nM
- IC50 [3]: > 300 nM
- IC50 [4]: > 300 nM
- IC50 [5]: > 300 nM
- viability, T/C (second compound 0.1 µM, first compound 0.000949 µM): 89.3%
- viability, T/C (second compound 0.1 µM, first compound 0.003 µM): 84.7%
- viability, T/C (second compound 0.1 µM, first compound 0.00949 µM): 68.9%
- viability, T/C (second compound 0.1 µM, first compound 0.03 µM): 69.5%
- viability, T/C (second compound 0.1 µM, first compound 0.0949 µM): 67.7%
- viability, T/C (second compound 0.1 µM, first compound 0.3 µM): 75.6%
- viability, T/C (second compound 0.316 µM, first compound 0.000949 µM): 66.5%
- viability, T/C (second compound 0.316 µM, first compound 0.003 µM): 71.5%
- viability, T/C (second compound 0.316 µM, first compound 0.00949 µM): 69.7%
- viability, T/C (second compound 0.316 µM, first compound 0.03 µM): 61.3%
- viability, T/C (second compound 0.316 µM, first compound 0.0949 µM): 58.1%
- viability, T/C (second compound 0.316 µM, first compound 0.3 µM): 62.5%
- viability, T/C (second compound 1 µM, first compound 0.000949 µM): 76.3%
- viability, T/C (second compound 1 µM, first compound 0.003 µM): 73.6%
- viability, T/C (second compound 1 µM, first compound 0.00949 µM): 78.9%
- viability, T/C (second compound 1 µM, first compound 0.03 µM): 66%
- viability, T/C (second compound 1 µM, first compound 0.0949 µM): 63.1%
- viability, T/C (second compound 1 µM, first compound 0.3 µM): 75.2%
- viability, T/C (second compound 3.16 µM, first compound 0.000949 µM): 61.2%
- viability, T/C (second compound 3.16 µM, first compound 0.003 µM): 80.1%
- viability, T/C (second compound 3.16 µM, first compound 0.00949 µM): 74.2%
- viability, T/C (second compound 3.16 µM, first compound 0.03 µM): 69.1%
- viability, T/C (second compound 3.16 µM, first compound 0.0949 µM): 68.4%
- viability, T/C (second compound 3.16 µM, first compound 0.3 µM): 69.2%
- viability, T/C (second compound 10 µM, first compound 0.000949 µM): 71.7%
- viability, T/C (second compound 10 µM, first compound 0.003 µM): 84.8%
- viability, T/C (second compound 10 µM, first compound 0.00949 µM): 79.3%
- viability, T/C (second compound 10 µM, first compound 0.03 µM): 59.6%
- viability, T/C (second compound 10 µM, first compound 0.0949 µM): 60.3%
- viability, T/C (second compound 10 µM, first compound 0.3 µM): 58.4%

Structure (SMILES): COc1c(OCCCN2CCOCC2)ccc2c3n(c(=NC(=O)c4cnc(N)nc4)nc12)CCN3
- viability, T/C (compound 0.00316 µM): 102%
- viability, T/C (compound 0.01 µM): 75.8% and 88.7%
- viability, T/C (compound 0.0316 µM): 59.6% and 64.5%
- viability, T/C (compound 0.1 µM): 48.8% and 42.4%
- viability, T/C (compound 0.316 µM): 35.9% and 36.7%
- viability, T/C (compound 1 µM): 33.4% and 31.1%
- IC50 (curve of compound): 75 nM and 69.6 nM

Structure (SMILES): CC1(C)CCC(CN2CCN(c3ccc(C(=O)NS(=O)(=O)c4ccc(NCC5CCOCC5)c([N+](=O)[O-])c4)c(Oc4cnc5[nH]ccc5c4)c3)CC2)=C(c2ccc(Cl)cc2)C1 + CCN1CCN(Cc2ccc(Nc3ncc(F)c(-c4cc(F)c5nc(C)n(C(C)C)c5c4)n3)nc2)CC1
- IC50 (curve of first compound, second compound 0.01 µM): 7190 nM
- IC50 (curve of first compound, second compound 0.0316 µM): 5800 nM
- IC50 [1]: 5910 nM
- IC50 [2]: 4880 nM
- IC50 [3]: 4690 nM
- viability, T/C (second compound 0.01 µM, first compound 0.0316 µM): 96.5%
- viability, T/C (second compound 0.01 µM, first compound 0.1 µM): 123%
- viability, T/C (second compound 0.01 µM, first compound 0.316 µM): 106%
- viability, T/C (second compound 0.01 µM, first compound 1 µM): 105%
- viability, T/C (second compound 0.01 µM, first compound 3.16 µM): 119%
- viability, T/C (second compound 0.01 µM, first compound 10 µM): 25.9%
- viability, T/C (second compound 0.0316 µM, first compound 0.0316 µM): 63.6%
- viability, T/C (second compound 0.0316 µM, first compound 0.1 µM): 95.8%
- viability, T/C (second compound 0.0316 µM, first compound 0.316 µM): 87.1%
- viability, T/C (second compound 0.0316 µM, first compound 1 µM): 72.2%
- viability, T/C (second compound 0.0316 µM, first compound 3.16 µM): 83.2%
- viability, T/C (second compound 0.0316 µM, first compound 10 µM): 22.6%
- viability, T/C [6]: 80.5%
- viability, T/C [7]: 86.9%
- viability, T/C [8]: 83.2%
- viability, T/C [9]: 84.5%
- viability, T/C [10]: 83%
- viability, T/C [11]: 22.2%
- viability, T/C [12]: 69.6%
- viability, T/C [13]: 76.1%
- viability, T/C [14]: 80.8%
- viability, T/C [15]: 76.9%
- viability, T/C [16]: 73.3%
- viability, T/C [17]: 11.4%
- viability, T/C [18]: 69.6%
- viability, T/C [19]: 80.3%
- viability, T/C [20]: 64%
- viability, T/C [21]: 68.8%
- viability, T/C [22]: 67.1%
- viability, T/C [23]: 17.5%

Structure (SMILES): Cc1nc(NC(=O)N2CCCC2C(N)=O)sc1-c1ccnc(C(C)(C)C(F)(F)F)c1 (configuration not stated) + CC(C)NCC(C(=O)N1CCN(c2ncnc3c2C(C)CC3O)CC1)c1ccc(Cl)cc1
- IC50 [1]: 5190 nM
- IC50 [2]: 924 nM
- IC50 [3]: 257 nM
- IC50 [4]: 341 nM
- IC50 [5]: < 31.6 nM
- viability, T/C [6]: 85.3%
- viability, T/C [7]: 86.2%
- viability, T/C [8]: 71%
- viability, T/C [9]: 42.8%
- viability, T/C [10]: 72%
- viability, T/C [11]: 39.7%
- viability, T/C [12]: 63.8%
- viability, T/C [13]: 72%
- viability, T/C [14]: 44.2%
- viability, T/C [15]: 56.8%
- viability, T/C [16]: 40.2%
- viability, T/C [17]: 35.9%
- viability, T/C [18]: 66.1%
- viability, T/C [19]: 68.2%
- viability, T/C [20]: 46.2%
- viability, T/C [21]: 34.2%
- viability, T/C [22]: 35.6%
- viability, T/C [23]: 29.8%
- viability, T/C (second compound 3.16 µM, first compound 0.0316 µM): 56%
- viability, T/C (second compound 3.16 µM, first compound 0.1 µM): 50.9%
- viability, T/C (second compound 3.16 µM, first compound 0.316 µM): 48.7%
- viability, T/C (second compound 3.16 µM, first compound 1 µM): 44.5%
- viability, T/C (second compound 3.16 µM, first compound 3.16 µM): 41.1%
- viability, T/C (second compound 3.16 µM, first compound 10 µM): 21.4%
- viability, T/C (second compound 10 µM, first compound 0.0316 µM): 50.5%
- viability, T/C (second compound 10 µM, first compound 0.1 µM): 53.1%
- viability, T/C (second compound 10 µM, first compound 0.316 µM): 38.6%
- viability, T/C (second compound 10 µM, first compound 1 µM): 46.2%
- viability, T/C (second compound 10 µM, first compound 3.16 µM): 37.8%
- viability, T/C (second compound 10 µM, first compound 10 µM): 25.8%

Source: PubChem BioAssay AID2060332 (Molecular Pharmacology Branch, DTP, NCI, 2025)
